The values that follow come from patent publication US20250187998A1, “IDENTIFICATION OF SOIL BACTERIA-ENRICHING AGENTS AND METHODS OF USE THEREOF” (California Institute of Technology, priority 2023, published 2025).

In assay [1] the test system is Bacillus subtilis. Nature of the assay: Soil competition (soil bacteria-enrichment) assay, qPCR with strain-specific probes. It counts as cell-based. The conditions noted are these: 1 g non-sterile agriculture soil, 300 μL exudates, 20 mM target carbon substrate, four species pooled, 72 hours, qPCR (FIG. 23). The protocol: (§1) In some embodiments, the competition assay comprises adding one or more bacteria of interest to non-sterile agriculture soil at an equal starting OD and incubating the soil with plant root exudate and a desired concentration of candidate soil-bacteria enriching agent. In some embodiments, the non-sterile agriculture soil further comprises one or more plants. Methods of obtaining plant root exudate are known in the art. All such methods are suitable for use in the methods disclosed herein. For example, in some embodiments, plant root exudate is obtained by surface sterilizing Arabidopsis thaliana seeds, sowing the seeds on an agar plate and growing the seeds for 7 days. In some embodiments, after 7 days, the seedlings are transferred to a multi-well plate for exudate collection. In some embodiments, exudate collection comprises adding MS media to each well of the multi-well well plate along with about 50, 7-day old, Arabidopsis seedlings. The seedlings are then incubated with shaking in growth chamber for about 24 hours. After 24 hours, the exudates are collected, pooled, and filter sterilized. In some embodiments, the treated non-sterile agriculture soil is incubated with plant root exudate and a desired concentration of soil bacteria-enriching agent for about 3 days. After 3 days, DNA is extracted from soil and the concentration of the bacteria in the soil is measured. For example, in some embodiments, qPCR analysis is conducted using a universal bacteria primer “ALL” and species-specific primers. The threshold cycle (Ct) value for the universal primer is then subtracted from each of the species-specific primers to get the dCt or ΔCt.
(§2) The ability of the identified compounds to effectively manipulate the soil microbial community was examined using a series of soil bacteria-enrichment experiments. First, the ability of the candidate selective carbon substrates to influence microbial competition was tested using a series of soil competition experiments. 1 g of non-sterile agriculture soil was added to a 2 mL tube along with 300 μL of exudates, 20 mM target carbon substrates and an OD 3.33 of all four species pooled at an equal starting concentration. Tubes were collected after 72 hours and stored in −80° C. before processing. DNA was then extracted and screened using qPCR with probes unique to each strain to determine the abundance of each strain in the mixed community.

The subject of assay [2] is Pseudomonas putida. Description: Persistence of P. putida bioinoculant in non-sterile soil over time (qPCR, ΔCt). The note with it: initial density 10^5 cfu/g soil, exudate solution +/- 20 mM PEA, 28° C., sampled every 3 days, qPCR ΔCt (FIG. 25-26). It counts as cell-based. The protocol:
FIG. 25-26 are graphs showing persistence of a P. putida bioinoculant over time. […] Lower ΔCt indicates higher abundance. P. putida was introduced into non-sterile soil at an initial density of 10^5 cfu/g soil in exudate solution +/−20 mM phenylethylamine (PEA) at day 0 and allowed to incubate at 28° C. Two replicates are shown for each condition. Every 3 days, soil was collected, and DNA was extracted to probe the concentration of P. putida using 16S primers. Template DNA for qPCR was normalized to ˜1 ng/reaction.
For orientation: Quantitative PCR measures a nucleic acid by following its amplification.

The test system of assay [3] is P. putida KT2440 (PP). Description: Enrichment of bioinoculant in soil in the presence of plants (bulk soil and root qPCR). It counts as in vivo, Pseudomonas putida; Arabidopsis thaliana seedlings. The note with it: agriculture soil in magenta box, +/- 20 mM phenylethylamine, 10^5 cells per gram of soil, four Arabidopsis seedlings, 1 or 2 weeks. The source says: Some embodiments herein are directed to a method of assessing whether a given soil bacteria-enriching agent enriches a specific species of bacteria in a soil microbiome comprising at least one additional bacterial species when one or more plants are being supported by the soil. In some embodiments, the method comprises adding a known concentration of one or more species of bacteria to soil along with a soil bacteria-enriching agent. In some embodiments, the bacteria comprise Pseudomonas putida (PP), Azotobacter vinelandii (AV), Bacillus subtilis (BS), and/or Azospirillum brasilense (AB). In some embodiments, soil moisture at the start of the experiment is adjusted a desired level for growth of the plant. One or more plants are then planted in the treated soil and allowed to grow for about 1, 2, 3, 4, 5, 6, 7, 8, 9, 10, 11, 12, 13, 14, 15, 16, 17, 18, 19, 20, 21, 22, 23, 24, 25, 26, 27, 28, 29, 30, or 31 days or more, or for an amount of time that is in a range that is defined by any two of the preceding values. […] The quantity of one or more species of bacteria in the soil and/or the plant roots is then determined and one or more soil bacteria-enriching agents that uniquely promote the growth and attraction of a desired bacterial species as compared to one or more other bacteria in the soil microbiome are identified. […]

The subject of assay [4] is Pseudomonas putida. Description: Soil competition (soil bacteria-enrichment) assay, qPCR with strain-specific probes. It counts as cell-based. The conditions noted are these: 1 g non-sterile agriculture soil, 300 μL exudates, 20 mM target carbon substrate, four species pooled, 72 hours, qPCR (FIG. 24). Here is the method: as §1, §2
For assay [5], the system named is Azospirillum brasilense. The assay is described as above. It counts as cell-based. The conditions noted are these: 1 g non-sterile agriculture soil, 300 μL exudates, 20 mM target carbon substrate, four species pooled, 72 hours, qPCR (FIG. 21). The protocol:
as §1, §2

Turning to `OC[C@H]1O[C@@H](Oc2ccc(O)cc2)[C@H](O)[C@@H](O)[C@@H]1O` [arbutin, Arbutin], the “enrichment of Bacillus subtilis in agricultural soils with a native microbiome” value in assay [1] is “can be used to enrich Bacillus subtilis”.

`NCCc1ccccc1` [phenylethylamine, Phenylethylamine]: in assay [2], the “persistence of Pseudomonas putida in agricultural soil” value is recorded as “persists longer”. The “enrichment of PP in the bulk soil” value in assay [3] (qPCR (FIG. 27)) was “enriched”. The “enrichment of PP on plant root (root colonization)” value in assay [3] (root DNA qPCR (FIG. 28)) is recorded as “enriched”. Besides, the “enrichment of Pseudomonas putida in agricultural soils with native microbiome” value in assay [4] is “can be used to enrich Pseudomonas putida”.

As for `CCC(=O)[O-].[Na+]` [sodium propionate], in assay [5], the “enrichment of Azospirillum brasilense in agricultural soils with a native microbiome” value is “can be used to enrich Azospirillum brasilense”.

With `CCCCCCCCCC(=O)O` [capric acid, Capric acid], the “enrichment of Pseudomonas putida in agricultural soils with native microbiome” value in assay [4] was “can be used to enrich Pseudomonas putida”.

As for `COC1OC(CO)C(O)C(O)C1O` [α-methyl d-galactoside, a-Methyl-D-Galactoside], the “enrichment of Bacillus subtilis in agricultural soils with a native microbiome” value in assay [1] was “can be used to enrich Bacillus subtilis”.
